Results: ChEMBL document CHEMBL3988442, “University of Dundee, Small-Polar-MMV Screening Library” (2021)
“And” between values parts separate entries of the source, which are not always exact repeats. Identical values can stand only once.

How the values were obtained:
[1] = Trypanosoma cruzi proteasome luciferase counter-screen; type: functional, N/A
Proteasome subunit beta = molecular target: T1, Proteasome subunit beta (Trypanosoma cruzi, UniProt O96673); experiment: Trypanosoma cruzi proteasome chymotrypsin-like activity (TcProtChymo) assay.; type: functional
T1 sequence (O96673 whole entry): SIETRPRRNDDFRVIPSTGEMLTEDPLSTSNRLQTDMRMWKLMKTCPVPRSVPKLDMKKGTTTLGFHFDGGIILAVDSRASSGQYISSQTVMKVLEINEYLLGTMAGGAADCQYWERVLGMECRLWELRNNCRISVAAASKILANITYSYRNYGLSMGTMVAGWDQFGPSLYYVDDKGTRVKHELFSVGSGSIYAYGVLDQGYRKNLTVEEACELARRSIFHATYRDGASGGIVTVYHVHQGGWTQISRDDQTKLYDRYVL

[2] = microbe, parasite or virus in culture; details: Mycobacterium tuberculosis, 72 h, read-out: pIC50 (converted)
[3] = To identify inhibition of the IFN signalling (Jak-Stat) pathway via expression of an eGFP reporter gene under the control of an IFN-stimulated response element (ISRE) containing MxA promoter.; type: functional, Homo sapiens
[4] = microbe, parasite or virus in culture; details: Mycobacterium tuberculosis, 96 h, read-out: pIC50 (converted)
Schistosoma mansoni = experiment: High throughput screening of compounds against Schistosoma mansoni motility; type: functional; parameters: dose or concentration left out as unconfirmed
[5] = molecular target: Chromo domain-containing protein 1 (Saccharomyces cerevisiae (strain ATCC 204508 / S288c) (Baker's yeast), UniProt P32657); experiment: ScCHD-1 Enzyme Inhibition Assay; type: functional
[6] = molecular target: AMP-activated protein kinase, AMPK; experiment: AMP-dependent Kinase enzyme assay. An in vitro enzyme assay that detects ADP turnover that is directly proportional to AMPK activity. This uses naive AMPK that is activated during the assay with MK-8722; type: functional, Homo sapiens
Wolbachia pipientis = experiment: Anti-Wolbachia Cell-Based Screen; type: functional; details: Wolbachia pipientis
Histidine--tRNA ligase = molecular target: T2, Histidine--tRNA ligase (Leishmania infantum, UniProt A4I591); experiment: Leishmania infantum Histidine tRNA synthetase (LdHisRS); type: functional
T2 sequence (A4I591 whole entry): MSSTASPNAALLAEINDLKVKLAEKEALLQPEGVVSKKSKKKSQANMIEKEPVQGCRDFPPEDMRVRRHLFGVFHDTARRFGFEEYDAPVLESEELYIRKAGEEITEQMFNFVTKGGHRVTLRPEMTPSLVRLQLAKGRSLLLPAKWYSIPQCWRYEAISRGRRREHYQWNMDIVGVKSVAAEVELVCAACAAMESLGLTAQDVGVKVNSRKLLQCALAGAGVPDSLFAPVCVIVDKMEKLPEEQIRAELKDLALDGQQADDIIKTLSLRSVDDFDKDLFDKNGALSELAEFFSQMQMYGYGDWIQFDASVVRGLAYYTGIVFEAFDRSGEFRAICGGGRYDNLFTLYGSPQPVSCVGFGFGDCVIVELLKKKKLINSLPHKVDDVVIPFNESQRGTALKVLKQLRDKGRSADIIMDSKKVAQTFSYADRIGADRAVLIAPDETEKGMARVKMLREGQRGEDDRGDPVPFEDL

ClpP1P2 = ClpP1P2 (Mycobacterium tuberculosis (strain ATCC 25618 / H37Rv), UniProt P9WPC3+P9WPC5); experiment: in vitro assay to detect presence of AMC directly proportional to the activity of ClpP1P2. GHDDI collaboration.; type: functional
Chain of ClpP1P2 (P9WPC5 whole entry): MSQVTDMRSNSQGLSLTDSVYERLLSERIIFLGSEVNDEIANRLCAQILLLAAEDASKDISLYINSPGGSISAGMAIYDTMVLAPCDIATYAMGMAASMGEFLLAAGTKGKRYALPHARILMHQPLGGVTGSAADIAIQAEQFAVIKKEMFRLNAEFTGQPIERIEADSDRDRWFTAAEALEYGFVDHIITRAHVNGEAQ
Chain of ClpP1P2 (P9WPC3 whole entry): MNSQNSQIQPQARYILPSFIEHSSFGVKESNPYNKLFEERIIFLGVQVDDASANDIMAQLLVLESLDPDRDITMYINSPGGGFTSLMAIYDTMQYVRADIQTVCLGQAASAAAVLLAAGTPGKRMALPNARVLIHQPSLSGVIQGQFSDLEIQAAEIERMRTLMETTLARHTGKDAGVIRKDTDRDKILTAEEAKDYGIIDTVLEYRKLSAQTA

Chain of Chromo domain-containing protein 1 (P32657 whole entry, the tested form may be a part): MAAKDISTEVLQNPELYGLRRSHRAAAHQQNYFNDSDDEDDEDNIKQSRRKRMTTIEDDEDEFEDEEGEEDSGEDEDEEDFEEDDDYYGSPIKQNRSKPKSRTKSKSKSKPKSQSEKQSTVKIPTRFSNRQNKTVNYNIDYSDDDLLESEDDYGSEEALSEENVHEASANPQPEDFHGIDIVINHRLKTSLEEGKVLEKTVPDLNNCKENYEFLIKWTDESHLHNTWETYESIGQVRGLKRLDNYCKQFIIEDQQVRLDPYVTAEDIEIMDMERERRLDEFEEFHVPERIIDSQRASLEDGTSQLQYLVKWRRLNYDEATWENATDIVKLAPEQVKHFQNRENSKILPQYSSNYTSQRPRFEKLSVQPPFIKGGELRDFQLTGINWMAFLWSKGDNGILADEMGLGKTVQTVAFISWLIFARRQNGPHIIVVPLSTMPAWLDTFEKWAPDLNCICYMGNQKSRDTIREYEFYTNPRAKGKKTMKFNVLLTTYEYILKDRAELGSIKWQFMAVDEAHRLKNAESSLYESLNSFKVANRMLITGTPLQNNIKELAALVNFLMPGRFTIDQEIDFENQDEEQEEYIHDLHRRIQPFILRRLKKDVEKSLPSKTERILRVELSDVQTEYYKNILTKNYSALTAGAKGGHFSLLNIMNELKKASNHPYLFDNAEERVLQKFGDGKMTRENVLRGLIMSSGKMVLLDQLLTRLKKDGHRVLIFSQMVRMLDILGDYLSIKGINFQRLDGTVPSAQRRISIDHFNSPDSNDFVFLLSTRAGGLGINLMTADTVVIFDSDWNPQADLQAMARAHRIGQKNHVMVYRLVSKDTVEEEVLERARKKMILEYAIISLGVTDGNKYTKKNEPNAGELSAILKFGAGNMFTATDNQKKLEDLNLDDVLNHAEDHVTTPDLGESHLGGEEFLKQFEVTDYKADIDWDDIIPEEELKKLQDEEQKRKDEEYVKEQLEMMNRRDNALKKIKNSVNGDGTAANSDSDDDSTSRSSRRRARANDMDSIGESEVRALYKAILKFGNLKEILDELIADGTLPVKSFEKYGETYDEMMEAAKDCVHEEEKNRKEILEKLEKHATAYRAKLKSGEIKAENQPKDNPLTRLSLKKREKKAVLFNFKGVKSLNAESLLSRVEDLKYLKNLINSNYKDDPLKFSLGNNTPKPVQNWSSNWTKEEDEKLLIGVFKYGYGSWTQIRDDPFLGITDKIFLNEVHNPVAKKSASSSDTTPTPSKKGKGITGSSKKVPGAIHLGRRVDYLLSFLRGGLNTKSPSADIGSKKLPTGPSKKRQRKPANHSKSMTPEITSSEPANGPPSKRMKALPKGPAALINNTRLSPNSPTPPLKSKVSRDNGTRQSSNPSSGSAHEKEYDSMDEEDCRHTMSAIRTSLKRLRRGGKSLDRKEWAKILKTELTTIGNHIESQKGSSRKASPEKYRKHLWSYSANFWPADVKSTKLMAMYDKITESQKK

SMILES	pIC50 [1]	IC50 (Proteasome subunit beta)	further results
O=C(Nc1ccc(F)c(Br)c1)N1CCCC1	< 4	11.4 µM and 11.2 µM	–
Cc1ccc(C(=O)Nc2cn[nH]c2)cc1C	4.136 and 4.208	13.3 µM and 12.6 µM	–
COc1cccc(-c2nc(C)c(C(=O)NC(CO)CCSC)s2)c1 (configuration not stated)	4.212	27.3 µM and 32.3 µM	–
Cc1noc(NC(=O)c2ccc(C)c(F)c2)n1	–	–	IC50 [2]: 30.5 µM; pIC50 [3]: 4.682 and < 4.57; IC50 [4]: 27.1 µM
Cl.c1ccc(-c2ccc(C3CNCCO3)nc2)cc1 (configuration not stated)	4.18 and 4.164	13.7 µM and 13 µM	–
Cc1ccc(-c2nc(CN3CCC(C(=O)N(C)C)CC3)cs2)o1	< 4	46.3 µM and 43.1 µM	–
CC(C1CC1)N(C)C(=O)c1cnc(-c2ccc3c(c2)OCO3)s1 (configuration not stated)	4.375 and 4.324	13.7 µM and 13.1 µM	Percent Effect (Schistosoma mansoni): 12.48%
N#Cc1c(F)cccc1N1CCN(S(=O)(=O)c2cccs2)CC1	–	–	Percent Effect (Schistosoma mansoni): 35.72%; IC50 [5]: > 29.5 µM; pIC50 [3]: 4.537 and 4.564
CC(C)n1ccc(-c2cc(C(=O)N3CCCC3)c3ccccn23)n1	–	–	pIC50 [6]: < 4; pIC50 [3]: < 4.21
COCC1CCCN(C(=O)c2cc(Cn3ccc4ccccc43)[nH]n2)C1 (configuration not stated)	–	–	IC50 [5]: > 29.5 µM and 18.8 µM; pIC50 [3]: < 4.21
CC(C)c1cc2c(O)nc(CSCC(=O)O)nc2s1	4.494 and 4.54	7.28 µM and 8.24 µM	–
COc1cccc(-c2nc(CNCCn3cccn3)cs2)c1	4.359 and 4.346	13.4 µM and 11.8 µM	–
CNC(=O)c1cnc(/C=C/c2ccc(OC)c(O)c2)s1	4.132 and < 4	17.4 µM and 13.8 µM	–
COc1c(CNC2CCSc3ccc(F)cc32)c(C)nn1C.Cl (configuration not stated)	–	–	IC50 (Wolbachia pipientis): > 10 µM; pIC50 [3]: 4.845 and 5.142
O=C(c1ccc(C2CCCO2)s1)N1Cc2ccccc2C1 (configuration not stated)	4.241 and < 4	16.1 µM and 11.4 µM	–
O=C(NCCCN1CCOCC1)c1ccn(-c2ccc3ccccn23)n1.O=C(O)C(F)(F)F	< 4	> 100 µM	–
CCc1nc(CN2CCCN(C(=O)CCc3ccco3)CC2)cs1	< 4	> 100 µM	–
O=C(c1cn(-c2ccccc2Cl)nn1)N1CCCSCC1	4.282 and 4.315	14.2 µM and 16.4 µM	–
Cn1cc(-c2csc(N3CCN(C(=O)OC(C)(C)C)CC3)n2)cn1	–	–	Percent Effect (Schistosoma mansoni): -8.994%; pIC50 [3]: 4.669 and 4.891
Cc1cc(N2CCN(CC(=O)N(C)C)CC2)nc(-c2ccncc2)n1	< 4	> 100 µM	IC50 (Histidine--tRNA ligase): > 100 µM
CCc1nc(COc2ccc(OCc3cnn(C)c3)cc2)no1	4.267 and 4.334	12.3 µM and 13.3 µM	–
CC1CN(CC2CCCCC2)CCN1c1ccc2nncn2n1 (configuration not stated)	–	–	IC50 (ClpP1P2): > 100 µM; IC50 [5]: > 29.5 µM; pIC50 [3]: 4.49 and 4.459
CCc1nnc2n1CCN(Cc1csc(-c3ccc(C)o3)n1)C2	< 4	> 100 µM	–
Cc1ccc(-c2cc(C(=O)NC(C)C(=O)N3CCCCC3)on2)cc1 (configuration not stated)	4.246 and 4.264	26.1 µM and 26.7 µM	–
COc1cccc(C(=O)NCC(O)c2cccs2)c1 (configuration not stated)	4.037 and < 4	16.9 µM and 18.4 µM	Percent Effect (Schistosoma mansoni): -12.61%
Cc1cc(C(=O)N2CCc3nnc(N)cc3C2)c(C)n1-c1cccnc1	< 4	> 100 µM	–
CCC(C)NC(=O)NCCCn1nc2ccccn2c1=O (configuration not stated)	–	–	IC50 (Histidine--tRNA ligase): > 100 µM; pIC50 [3]: < 4.21
Cc1cc(C(=O)N2CCC3(CCCN(CC4CC4)C3=O)C2)c(C)n1C (configuration not stated)	< 4	> 100 µM and 85.7 µM	–
